{"source": "patent US20260209220A1", "about": "“SUBSTITUTED TETRAHYDROPYRROLO-PYRIDINONE COMPOUNDS AND THEIR USE IN TREATING MEDICAL CONDITIONS” (Karuna Therapeutics, Inc., priority 2022, published 2026)", "key": {"[1]": {"system": "amphetamine-evoked hyperlocomotion", "assay": "Amphetamine-evoked hyperlocomotion in rats (open field)", "type": "in vivo, rat", "settings": "Sprague Dawley rats, 0.5 mg/kg amphetamine s.c., distance traveled in the 60 min after AMP", "method": "Compounds may be tested for ability to impact behavior activity of rats according to the following procedures. Animals: Adult male, Sprague Dawley rats (Envigo, Indianapolis, IN, USA) are housed in a colony maintained at 23° C. with 12 h light/dark cycles (lights on at 0600 hours). All animals weigh 290-330 g at the beginning of the study and are equally divided into 5 groups (n=8 per group) and received one of the treatment conditions listed below. Behavioral Procedures: Studies are conducted in MedAssociates open field chambers (27.3 cm×27.3 cm×20.3 cm, MedAssociates, St. Albans, VT) in which movement is automatically tracked and recorded by 16 beam arrays. The administration pretreatment of the test article is determined to coincide with Tmax at the time of the amphetamine-evoked session with optimal route of administration. All groups are subcutaneously treated with 0.5 mg/kg amphetamine (AMP). The test article is tested in three dose groups with a half-log increase between doses. Risperidone (0.55 mg/kg, 30 minutes, s.c.) may be used as a positive control and is administered to group 5. To determine the role of test article on AMP-evoked hyperlocomotion, rats are placed in the open area and allowed to habituate for 30 min before being s.c. dosed with 0.5 mg/kg AMP. Locomotor data (distance traveled) is recorded as 5-minute bins throughout the 90-minute session. The dose of AMP is chosen based on the selective increase in locomotor behavior relative to stereotypes. The dose of risperidone is chosen that produced reliable effects and served as a positive control. Statistical Analysis: Spontaneous locomotion (prior to AMP administration) is calculated as the total distance traveled during the first 30 minutes of the experimental session. AMP-evoked responses are calculated as the total distance traveled during the last 60 minutes of the experimental session which commenced immediately after AMP administration. Locomotor data may be analyzed by a one-way ANOVA. When there is a significant overall ANOVA, post hoc comparisons may be made by Dunnett's test with statistical significance determined as p<0.05. […] Behavioral Procedures: Studies were conducted in MedAssociates open field chambers (27.3 cm×27.3 cm×20.3 cm, MedAssociates, St. Albans, VT) in which movement was automatically tracked and recorded by 16 beam arrays. Administration pretreatment of the test article was determined to coincide with Tmax at the time of the amphetamine-evoked session with optimal route of administration. […] Locomotor data (distance traveled) was recorded as 5-minute bins throughout the 90-minute session. […] Statistical Analysis: Spontaneous locomotion (prior to AMP administration) was calculated as the total distance traveled during the first 30 minutes of the experimental session. […]"}, "hM4 receptors": {"target": "T1, hM4 receptors (Homo sapiens, UniProt P08173)", "T1 construct": "expressed in transfected cells; host or cells: CHO cells", "T1 sequence (P08173 1-479)": "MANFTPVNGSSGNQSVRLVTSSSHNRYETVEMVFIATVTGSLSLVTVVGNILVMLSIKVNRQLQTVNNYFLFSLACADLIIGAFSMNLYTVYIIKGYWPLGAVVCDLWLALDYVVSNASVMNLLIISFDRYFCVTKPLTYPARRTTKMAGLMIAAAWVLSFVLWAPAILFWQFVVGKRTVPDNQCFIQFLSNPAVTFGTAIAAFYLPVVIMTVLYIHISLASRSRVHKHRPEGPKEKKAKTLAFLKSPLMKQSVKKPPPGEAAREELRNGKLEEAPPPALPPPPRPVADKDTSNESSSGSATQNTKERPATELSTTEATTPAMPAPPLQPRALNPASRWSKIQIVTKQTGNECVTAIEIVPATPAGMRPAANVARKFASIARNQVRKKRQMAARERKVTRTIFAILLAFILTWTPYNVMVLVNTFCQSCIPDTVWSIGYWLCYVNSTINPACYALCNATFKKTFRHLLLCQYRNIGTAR", "assay": "Human M4 PAM PERK assay (CHO cells, TR-FRET, with EC20 acetylcholine)", "type": "cell-based", "in_short": "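CHO cells expressing human or rat M4, serum-starved 4 h, then given compound (10-point, 10 μM top, ½-log) with EC20 acetylcholine (10 nM final) for 5 min at 37 °C. Lysates assayed for phospho-ERK by TR-FRET after 2 h detection at RT.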"}}, "data": [{"compound": "Cc1c2c(n(C)c(=O)c1F)CN(C(=O)CC1CN(c3ccc(C4CC4)c(F)c3)C1)C2", "note": "[Compound I-88]", "values": [{"measurement": "Dose Amount of Compound at which rats displayed a reduction in amphetamine-evoked hyperlocomotion activity", "setting": "[1]", "result": 10, "unit": "mg/kg"}, {"measurement": "EC50", "setting": "hM4 receptors", "result": "< 0.05", "unit": "µM"}]}, {"compound": "Cc1cc(=O)n(C)c2c1CN(C(=O)CC1CN(c3cc(F)cc(C4CC4)c3)C1)C2", "note": "[Compound I-4]", "values": [{"measurement": "Dose Amount of Compound at which rats displayed a reduction in amphetamine-evoked hyperlocomotion activity", "setting": "[1]", "result": 10, "unit": "mg/kg"}, {"measurement": "EC50", "setting": "hM4 receptors", "result": "0.05 to 0.2", "unit": "µM"}]}, {"compound": "Cc1cc(=O)n(C)c2c1CN(C(=O)CC1CN(c3cccc(F)c3F)C1)C2", "note": "[Compound I-14]", "values": [{"measurement": "Dose Amount of Compound at which rats displayed a reduction in amphetamine-evoked hyperlocomotion activity", "setting": "[1]", "result": 32, "unit": "mg/kg"}, {"measurement": "EC50", "setting": "hM4 receptors", "result": "0.05 to 0.2", "unit": "µM"}]}, {"compound": "Cc1c2c(n(C)c(=O)c1C)CN(C(=O)CC1CN(c3ccnc(C(F)(F)F)c3)C1)C2", "note": "[Compound I-42, 1,3,4-Trimethyl-6-(2-(1-(2-(trifluoromethyl)pyridin-4-yl)azetidin-3-yl)acetyl)-1,5,6,7-tetrahydro-2H-pyrrolo[3,4-b]pyridin-2-one]", "values": [{"measurement": "Dose Amount of Compound at which rats displayed a reduction in amphetamine-evoked hyperlocomotion activity", "setting": "[1]", "result": 32, "unit": "mg/kg"}, {"measurement": "EC50", "setting": "hM4 receptors", "result": "< 0.05", "unit": "µM"}]}]}
